According to patent US9993447B2, “Systems and methods for increasing agmatine cellular uptake by oral administration” (priority 2015, dated 2018):

Columns and labels:
[1] = tested on: rat; settings: rat experimental model; cited from earlier work
[2] = concentration of 1 mM; cited from earlier work
[3] = cited from earlier work
[4] = pH of 1% agmatine salt solutions in purified water at room temperature; assay type: physicochemical; settings: 1% in purified water
Source text: Compounds and formulations according to embodiments of the present disclosure may provide a method to increase cellular uptake of agmatine in an animal or human. It should be appreciated that agmatine uptake may increase dramatically with increasing pH, and protonation of the amino group of agmatine is dependent on pH. The guanidinium group in agmatine has a pH of about 12.5 in aqueous solution while the amino group in agmatine has a pH of about 9. At the physiological pH, agmatine may be protonated and thus, requires transporters for uptake into the cells to occur. The fraction of the molecules having a single positive charge may increase as pH increases. […] This is reflected in FIGS. 1 and 2.

[5] = Titration of 1% agmatine salt solutions with aqueous 0.1N HCl; assay type: physicochemical; settings: 1% solution titrated with 0.1N HCl
Method: FIG. 1 depicts a graphical representation of 1% agmatine salt solutions in a titration with an aqueous 0.1N HCl solution according to an embodiment of the present disclosure;
(§1) The pH dependence has been evaluated in acidic as well as basic conditions. […] About 15 mL of 0.1N HCl may be used to lower the pH of agmatine phosphate at around 3 while other agmatine salts, at the same concentration and in the same measuring conditions, required approximately 2-4 mL to change to an acidic pH. The same kind of behavior was observed when solutions of agmatine salts were titrated with a solution of agmatine base. About 20 mL were required to make the pH alkaline (above 8) in the case of agmatine phosphate, while other agmatine salts required approximately 2-3 mL to achieve the same pH range. Taking these observations into consideration along with the fact that better uptake of agmatine is observed at a higher pH, it should be appreciated that agmatine dihydrochloride and agmatine phosphate may be more desirable agmatine salts than agmatine sulfate for improving bioavailability of orally administered agmatine.

[6] = Titration of 1% agmatine salt solutions with 5% aqueous arginine base; assay type: physicochemical; settings: 1% solution titrated with 5% arginine base, room temperature
Method: FIG. 2 depicts a graphical representation of 1% agmatine salt solutions in a titration with an 5% aqueous arginine base solution at room temperature according to an embodiment of the present disclosure;
as §1

[7] = prior intake, trained young men; cited from earlier work
[8] = oral, with high-intensity periodized resistance training; cited from earlier work
[9] = approximately 150 g over three days, oral; cited from earlier work
[10] = 300 mg daily for 6 weeks, young healthy trained athletes; cited from earlier work
[11] = pH of buffer media; assay type: physicochemical; settings: room temperature
Source text: Crea-Trona® is also known as buffered creatine. During the fabrication process, AlzChem uses a double buffer from sodium carbonate and sodium bi-carbonate, both natural minerals, which creates an alkaline environment with a pH value between 8 and 12. Crea-Trona is more efficient than other types of creatine, including those with an alkaline pH-buffer (kre-alkalynes). The double buffer prevents the pH-value in the muscles from dropping rapidly during the workout. This may lead to a larger training volume and may stimulate faster recovery of the original pH-value after the workout.
To maximize the benefits of oral administration of agmatine salts according to embodiments of the present disclosure, a buffer media may be used in formulations, or a stable mono-protonated or neutral form of such agmatine salts should be administered instead. As reflected in the formulations described above according to embodiments of the present disclosure, different buffer media have been used including Crea-Trona (such as that offered by AlzChem), arginine base, as well as Effer-Soda (such as that offered by SPI Pharma). However, it should be appreciated that other buffer media, such as potassium carbonate or potassium bicarbonate, may be utilized without departing from the present disclosure. Such buffer media may elevate the pH of the formulation. […]

In the case of `N=C(N)NCCCCN` [agmatine, (4-aminobutyl)guanidine], the Lethal dose [1] is listed as 1 to 10 mg/kg, the Cytotoxic effects [2] is listed as “no cytotoxic effects” and the “pKa value of the guanadino group” value [3] is listed as 12.5.

With `Cl.Cl.N=C(N)NCCCCN` [agmatine dihydrochloride] the “pH of 1% agmatine salt solution” value [4] was 6.4.

In the case of `N=C(N)NCCCCN.O=P(O)(O)O` [agmatine phosphate], the “Volume of 0.1N HCl used to lower the pH to around 3 (acidic pH)” value [5] is reported as “About 15 mL”, the “pH of 1% agmatine salt solution” value [4] is reported as 5.7 and the “Volume of base solution required to make the pH alkaline (above 8)” value [6] is reported as “About 20 mL”.

In the case of `O=C([O-])O.[Na+]` [sodium bicarbonate], the “High-intensity intermittent exercise performance” value [7] is given as “improved”.

In the case of `Nc1ncnc2c1ncn2[C@@H]1O[C@H](COP(=O)(O)OP(=O)(O)OP(=O)(O)O)[C@@H](O)[C@H]1O` [ATP, adenosine triphosphate], the “Muscle mass, strength, and power compared with placebo-matched control” value [8] is given as “increases muscle mass, strength, and power”.

In the case of `O=C[C@H](O)[C@H](O)[C@H](O)CO` [D-ribose], the “Rate of ATP replenishment over three days of rest compared to placebo sugar (maltodextrin)” value [9] is listed as “greater”.

In the case of `COc1c(O)c(C)c(C/C=C(\C)CC/C=C(\C)CC/C=C(\C)CC/C=C(\C)CC/C=C(\C)CC/C=C(\C)CC/C=C(\C)CC/C=C(\C)CC/C=C(\C)CCC=C(C)C)c(O)c1OC` [Ubiquinol, ubiquinol], the “Maximum power output versus placebo” value [10] is given as “+0.08 W/kg bw” and the “Maximum power output versus placebo, relative change” value [10] is given as “+2.5%”.

With `N=C(N)NCCC[C@H](N)C(=O)O` [Arginine base, arginine] the “pH of arginine base in solution” value [11] was “around 10”.

With `N=C(N)NCCCCN.O=S(=O)(O)O` [agmatine sulfate, reference compound] the “pH of 1% agmatine salt solution” value [4] was 4.8.
